PubChem BioAssay AID732 (Emory University Molecular Libraries Screening Center, 2007)
Calls of active or inactive are those of the source. The rule behind the calls is not given here.

Each compound was assayed on in vivo angiogenesis, blood vessel count (assay: reduction of blood vessel formation in vivo – HTS, in vivo study (AID 732;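 note: zebrafish embryos dosed at one day post fertilization; 0% = reference inhibitor and 100% = plate mean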)). Details: stronger effect = lower value;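 tested at 30 µM in the well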.

SMILES | vessel count % control
Cc1nc2sccn2c(=O)c1CCN1CCC(=C(c2ccc(F)cc2)c2ccc(F)cc2)CC1 | 68.8% (inactive)
CCCOC(=O)c1c(-c2ccccc2)nc(CC)c(C(=O)SCC)c1CCC | 98% (inactive)
CC(N=C(NC#N)Nc1ccncc1)C(C)(C)C (stereo unspecified) | 98.9% (inactive)
NC(=O)OCC(COC(N)=O)c1ccccc1 | 62.7% (inactive)
CS(=O)(=O)Nc1ccc([N+](=O)[O-])cc1Oc1ccccc1 | 80.2% (inactive)
Oc1ccccc1O | 96.4% (inactive)
NC(C(=O)N[C@@H]1C(=O)N2C(C(=O)O)=C(Cl)CS[C@H]12)c1ccccc1 (stereo partly specified) | 108% (inactive)
C[C@]12CC[C@H](OS(=O)(=O)O)CC1=CC[C@@H]1[C@@H]2CC[C@]2(C)C(=O)CC[C@@H]12 | 90.1% (inactive)
c1ccc2nc(C3=NCCN3)ccc2c1 | 97.4% (inactive)
O=C(CCCN1CCC(O)(c2ccc(Cl)cc2)CC1)c1ccc(F)cc1 | 77.9% (inactive)
CN1CCN(c2nc3cc(C(F)(F)F)ccc3n3cccc23)CC1 | 100% (inactive)
Cc1cnc(C(=O)NCCc2ccc(S(=O)(=O)NC(=O)NC3CCCCC3)cc2)cn1 | 106% (inactive)
CN=C(NC#N)Nc1ccc(C2=NNC(=O)CC2C)cc1 (stereo unspecified) | 106% (inactive)
C[C@@]1(C2CCCC2)Cc2cc(OCC(=O)O)c(Cl)c(Cl)c2C1=O | 75.4% (inactive)
O=C(O)C1=CCCNC1 | 114% (inactive)
CCO/C([O-])=N/c1c[n+](N2CCOCC2)no1 | 100% (inactive)
CSc1nc(N)c2ncn([C@@H]3O[C@H](COP(=O)(O)OP(=O)(O)OP(=O)(O)O)[C@H](O)C3O)c2n1 (stereo partly specified) | 105% (inactive)
O=C(O)CNC(=O)C(CS)Cc1ccccc1 (stereo unspecified) | 117% (inactive)
CCCN(CCC)[C@H]1CCc2c(F)ccc(O)c2C1 | 93.1% (inactive)
CC1(C)CCC2=C(O1)c1ccccc1C(=O)C2=O | 65.8% (inactive)
NCCCCNCCCN | 122% (inactive)
O=c1[nH]c2cc(Cl)c(Cl)cc2[nH]c1=O | 109% (inactive)
COc1ccccc1N1CCN(CCCCN2C(=O)c3ccccc3C2=O)CC1 | 117% (inactive)
CCN(CC)CCNC(=O)c1cc(Cl)c(N)cc1OC | 99.4% (inactive)
CC[N+](C)(C)Cc1ccccc1Br | 116% (inactive)
NC(N)=NC(=O)c1nc(Cl)c(N2CCCCCC2)nc1N | 119% (inactive)

SMILES | vessel count % control
O=C(OC1CCN(CCCl)CC1)C(c1ccccc1)c1ccccc1 | 102% (inactive)
Cn1c(=O)[nH]c2ncn(C)c2c1=O | 95.7% (inactive)
COC(=O)Nc1nc2ccc(C(=O)c3cccs3)cc2[nH]1 | 150% (inactive)
CC(N)C(=O)OC(C)(C)Cc1ccc(Cl)cc1 (stereo unspecified) | 112% (inactive)
C[C@H]1CC2C3CCC4=CC(=O)C=C[C@]4(C)[C@@]3(Cl)[C@@H](O)C[C@]2(C)[C@@]1(O)C(=O)CO (stereo partly specified) | 120% (inactive)
CCCCCCN(CCCCCC)C(=O)Cc1c(-c2ccc(F)cc2)[nH]c2ccccc12 | 126% (inactive)
NC(=O)c1cccc(N)c1 | 117% (inactive)
CCCC(C)(COC(N)=O)COC(=O)NC(C)C (stereo unspecified) | 103% (inactive)
C[C@@H]1O[C@H](C[N+](C)(C)C)CS1 | 89.1% (inactive)
COc1ccc(-n2nc(C(F)(F)F)cc2-c2ccc(Cl)cc2)cc1 | 126% (inactive)
OCCN1CCN(CCCN2c3ccccc3Sc3ccc(C(F)(F)F)cc32)CC1 | 116% (inactive)
C/C(O)=C(\C#N)C(=O)Nc1cc(Br)ccc1Br | 139% (inactive)
CCN(CC)C(C)C(=O)N1c2ccccc2Sc2ccccc21 (stereo unspecified) | 94.9% (inactive)
COc1ccc(C(=O)N2CCCC2=O)cc1 | 116% (inactive)
Cc1cccc(C)c1NC1=NCCCS1 | 114% (inactive)
CNCCCC12CCC(c3ccccc31)c1ccccc12 | 92.5% (inactive)
CCC1(c2ccc(N)cc2)CCC(=O)NC1=O (stereo unspecified) | 98.8% (inactive)
CC(C)Cc1ccc(C(C)C(=O)O)cc1 (stereo unspecified) | 138% (inactive)
CC1=C(C(=O)O)N2C(=O)[C@@H](NC(=O)C(N)C3=CCC=CC3)[C@H]2SC1 (stereo partly specified) | 98.7% (inactive)
Cc1cccc(C)c1OCC(N)C(C)C (stereo unspecified) | 112% (inactive)
Clc1ccc2c(c1)C(N1CCNCC1)=Nc1ccccc1O2 | 98.2% (inactive)
O=C(O)C1CN(CCCP(=O)(O)O)CCN1 (stereo unspecified) | 119% (inactive)
Fc1ccc([C@@H]2CCNC[C@H]2COc2ccc3c(c2)OCO3)cc1 | 138% (inactive)
CCOC(=O)C12CC1/C(=N/O)c1ccccc1O2 (stereo unspecified) | 104% (inactive)
c1ccc(C2CN3CCSC3=N2)cc1 (stereo unspecified) | 95.6% (inactive)
